From US11655235B2, “Pyrrolidine and piperidine compounds” (YUHAN CORPORATION, priority 2019, dated 2023) come the findings set out here.

What all share (assay type): biochemical
One experiment deals with T1, recombinant human DPP8 (Homo sapiens, UniProt Q6V1X1).
T1 construct: purchased PBS Bioscience
The experiment is described as follows: DPP8 inhibition, fluorogenic substrate Z-Ala-Pro-AMC. The conditions noted are these: 25° C., Z-Ala-Pro-AMC substrate. In short, it runs like this:
(§1)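 Inhibitors are titrated in an 8-point series into the enzyme's assay buffer (DMSO no more than 0.5%). Substrate cleavage at 25 °C is followed by fluorescence, excitation 380 nm and emission 460 nm. IC50 values come from a four-variable logistic model.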

A further experiment addresses T2, Recombinant human FAP (Homo sapiens, UniProt Q12884).
T2 construct: purchased R&D systems
T2 sequence (Q12884 1-760): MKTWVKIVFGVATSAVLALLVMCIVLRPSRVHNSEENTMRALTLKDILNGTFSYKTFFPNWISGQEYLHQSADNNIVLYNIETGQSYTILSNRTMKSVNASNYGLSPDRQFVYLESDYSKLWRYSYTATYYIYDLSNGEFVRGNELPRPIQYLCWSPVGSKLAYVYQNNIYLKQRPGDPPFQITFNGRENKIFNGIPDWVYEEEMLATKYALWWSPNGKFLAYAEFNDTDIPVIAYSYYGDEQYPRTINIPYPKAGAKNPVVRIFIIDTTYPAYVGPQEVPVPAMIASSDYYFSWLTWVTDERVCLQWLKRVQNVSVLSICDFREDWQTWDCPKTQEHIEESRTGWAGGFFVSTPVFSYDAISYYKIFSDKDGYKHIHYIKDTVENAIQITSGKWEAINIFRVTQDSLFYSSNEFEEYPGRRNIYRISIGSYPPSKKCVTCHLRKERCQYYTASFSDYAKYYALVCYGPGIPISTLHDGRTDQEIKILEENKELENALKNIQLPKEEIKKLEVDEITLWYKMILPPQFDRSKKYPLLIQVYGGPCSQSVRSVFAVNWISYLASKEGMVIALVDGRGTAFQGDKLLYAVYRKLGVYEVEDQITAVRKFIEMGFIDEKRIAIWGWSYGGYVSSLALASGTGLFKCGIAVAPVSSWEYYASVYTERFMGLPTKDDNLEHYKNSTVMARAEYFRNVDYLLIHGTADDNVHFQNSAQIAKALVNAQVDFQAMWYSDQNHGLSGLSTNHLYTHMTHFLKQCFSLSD
The experiment is described as follows: FAP inhibition, fluorogenic substrate Z-Gly-Pro-AMC. The following applies: 25° C., Z-Gly-Pro-AMC substrate. Put shortly:
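Eight-point compound dilutions (≤0.1% DMSO) were incubated at 25° C with 10 ng recombinant human FAP in Tris pH 7.5/1 M NaCl/BSA buffer and Z-Gly-Pro-AMC. Inhibition was taken as % drop in fluorescence rate (380/460 nm) against uninhibited control; IC50 came from a four-parameter logistic fit.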

The next experiment addresses T3, recombinant human DPP7 (Homo sapiens, UniProt Q9UHL4).
T3 construct: purchased R&D Systems
The experiment is described as follows: DPP7 inhibition, fluorogenic substrate Lys-Pro-AMC. In short, it runs like this: as §1

The target of the next experiment is DPP4 (Homo sapiens, UniProt P27487). The experiment is described as follows: DPP4 inhibition, fluorogenic substrate H-Gly-Pro-AMC. Also noted: purchased R&D Systems. The following applies: for IC50: 25° C., H-Gly-Pro-AMC substrate; for inhibition at 1 µM: read-out: hDPP4 inhibition % at 1 μM.
The target of a further experiment is T4, recombinant human PREP (Homo sapiens, UniProt P48147).
T4 construct: purchased R&D System
T4 sequence (P48147 1-710): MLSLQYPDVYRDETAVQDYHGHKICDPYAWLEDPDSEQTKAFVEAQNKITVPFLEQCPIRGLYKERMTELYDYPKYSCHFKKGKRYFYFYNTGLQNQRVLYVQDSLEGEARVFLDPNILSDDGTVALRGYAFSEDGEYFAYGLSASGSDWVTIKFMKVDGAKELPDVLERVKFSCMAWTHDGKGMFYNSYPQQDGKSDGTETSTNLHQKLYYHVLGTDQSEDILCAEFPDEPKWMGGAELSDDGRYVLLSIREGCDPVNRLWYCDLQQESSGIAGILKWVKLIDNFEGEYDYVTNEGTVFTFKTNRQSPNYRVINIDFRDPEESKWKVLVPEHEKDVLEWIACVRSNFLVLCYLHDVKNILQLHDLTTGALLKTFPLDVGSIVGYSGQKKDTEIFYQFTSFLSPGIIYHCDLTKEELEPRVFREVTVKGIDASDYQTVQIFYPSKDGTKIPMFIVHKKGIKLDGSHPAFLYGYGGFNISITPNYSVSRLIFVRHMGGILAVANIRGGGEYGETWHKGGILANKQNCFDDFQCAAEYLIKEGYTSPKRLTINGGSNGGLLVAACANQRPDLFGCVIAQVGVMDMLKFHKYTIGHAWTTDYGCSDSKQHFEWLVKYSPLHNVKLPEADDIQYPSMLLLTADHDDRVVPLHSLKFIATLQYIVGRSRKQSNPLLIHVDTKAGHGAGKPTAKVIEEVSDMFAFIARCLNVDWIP
The experiment can be described thus: PREP inhibition, fluorogenic substrate Z-Gly-Pro-AMC. The conditions noted are these: Inhibitory Activity (IC50, nM) PREP, 25° C., Z-Gly-Pro-AMC substrate. In short, it runs like this: as §1

The target of another experiment is T5, recombinant human DPP9 (Homo sapiens, UniProt Q86TI2).
T5 construct: purchased R&D Systems
The experiment is described as follows: DPP9 inhibition, fluorogenic substrate H-Gly-Pro-AMC. The following applies: 25° C., H-Gly-Pro-AMC substrate. In short, it runs like this: as §1

Where only a bound is given, the exact number is not on record here.

Chain of DPP4 (P27487 whole entry): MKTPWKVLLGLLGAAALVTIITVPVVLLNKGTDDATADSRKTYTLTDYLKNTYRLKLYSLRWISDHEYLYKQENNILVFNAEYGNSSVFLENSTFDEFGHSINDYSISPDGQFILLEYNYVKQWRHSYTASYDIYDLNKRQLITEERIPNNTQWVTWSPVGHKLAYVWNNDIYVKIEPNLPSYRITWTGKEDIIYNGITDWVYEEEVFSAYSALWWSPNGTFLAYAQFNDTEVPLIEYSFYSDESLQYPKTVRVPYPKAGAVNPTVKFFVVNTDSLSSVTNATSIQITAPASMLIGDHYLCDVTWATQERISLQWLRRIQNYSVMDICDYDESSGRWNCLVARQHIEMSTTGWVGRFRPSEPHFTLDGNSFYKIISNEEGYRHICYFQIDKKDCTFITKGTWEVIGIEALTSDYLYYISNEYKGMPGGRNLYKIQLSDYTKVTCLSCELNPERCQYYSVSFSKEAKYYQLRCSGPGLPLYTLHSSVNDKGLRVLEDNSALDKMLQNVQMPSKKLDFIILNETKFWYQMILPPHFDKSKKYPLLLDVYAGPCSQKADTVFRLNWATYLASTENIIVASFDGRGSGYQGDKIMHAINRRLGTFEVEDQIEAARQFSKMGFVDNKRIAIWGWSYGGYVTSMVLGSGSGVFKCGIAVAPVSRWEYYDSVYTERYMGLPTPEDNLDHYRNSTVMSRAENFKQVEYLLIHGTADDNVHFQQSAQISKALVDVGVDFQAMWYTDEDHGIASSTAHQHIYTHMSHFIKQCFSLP
T5 sequence (Q86TI2 whole entry): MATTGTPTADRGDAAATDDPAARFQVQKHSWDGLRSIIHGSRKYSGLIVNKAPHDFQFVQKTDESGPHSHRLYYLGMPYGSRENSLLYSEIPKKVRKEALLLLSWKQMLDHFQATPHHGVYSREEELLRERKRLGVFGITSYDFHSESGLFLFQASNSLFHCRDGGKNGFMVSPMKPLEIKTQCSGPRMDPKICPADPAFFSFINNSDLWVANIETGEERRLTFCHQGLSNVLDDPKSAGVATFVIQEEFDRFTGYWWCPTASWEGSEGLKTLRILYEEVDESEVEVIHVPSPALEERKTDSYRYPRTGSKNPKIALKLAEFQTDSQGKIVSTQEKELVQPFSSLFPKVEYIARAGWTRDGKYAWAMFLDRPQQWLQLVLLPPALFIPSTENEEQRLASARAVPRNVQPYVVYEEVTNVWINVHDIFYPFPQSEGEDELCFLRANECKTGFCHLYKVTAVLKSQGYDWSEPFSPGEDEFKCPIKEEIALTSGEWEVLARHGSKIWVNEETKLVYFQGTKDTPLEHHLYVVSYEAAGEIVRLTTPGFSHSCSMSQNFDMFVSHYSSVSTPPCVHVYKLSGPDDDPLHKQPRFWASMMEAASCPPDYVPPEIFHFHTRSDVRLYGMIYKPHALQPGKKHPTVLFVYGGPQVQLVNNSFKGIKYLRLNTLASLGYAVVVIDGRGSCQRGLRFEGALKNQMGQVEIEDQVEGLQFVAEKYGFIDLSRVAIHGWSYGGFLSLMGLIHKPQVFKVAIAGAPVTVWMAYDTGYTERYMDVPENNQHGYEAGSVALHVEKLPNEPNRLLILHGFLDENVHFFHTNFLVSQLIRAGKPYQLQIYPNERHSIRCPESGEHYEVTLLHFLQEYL
T1 sequence (Q6V1X1 whole entry): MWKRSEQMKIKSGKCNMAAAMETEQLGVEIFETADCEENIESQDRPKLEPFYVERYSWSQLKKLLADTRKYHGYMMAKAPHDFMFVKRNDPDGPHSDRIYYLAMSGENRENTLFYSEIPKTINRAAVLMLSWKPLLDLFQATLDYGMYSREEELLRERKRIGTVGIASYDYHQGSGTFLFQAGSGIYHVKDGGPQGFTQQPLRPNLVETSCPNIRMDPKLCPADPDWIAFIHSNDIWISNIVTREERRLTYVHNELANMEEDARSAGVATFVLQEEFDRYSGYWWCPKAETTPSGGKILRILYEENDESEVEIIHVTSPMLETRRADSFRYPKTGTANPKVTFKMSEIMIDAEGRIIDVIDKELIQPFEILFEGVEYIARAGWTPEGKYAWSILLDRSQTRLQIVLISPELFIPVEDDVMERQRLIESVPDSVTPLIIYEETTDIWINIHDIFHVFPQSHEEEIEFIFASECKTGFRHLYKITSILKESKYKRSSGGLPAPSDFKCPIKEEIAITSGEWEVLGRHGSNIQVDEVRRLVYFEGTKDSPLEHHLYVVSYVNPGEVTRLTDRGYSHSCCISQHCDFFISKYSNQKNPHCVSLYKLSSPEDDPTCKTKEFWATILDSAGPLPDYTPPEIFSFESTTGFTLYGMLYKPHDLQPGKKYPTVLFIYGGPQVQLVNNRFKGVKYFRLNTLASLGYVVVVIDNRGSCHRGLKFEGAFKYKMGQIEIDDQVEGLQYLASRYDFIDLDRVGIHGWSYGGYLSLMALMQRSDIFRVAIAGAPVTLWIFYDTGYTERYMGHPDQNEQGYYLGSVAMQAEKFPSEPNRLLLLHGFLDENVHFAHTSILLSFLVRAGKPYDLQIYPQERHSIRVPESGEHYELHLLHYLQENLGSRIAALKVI

Turning to `COc1ccc2nccc(O[C@H]3CCN(CC(=O)N4CC(F)(F)C[C@H]4C#N)C3)c2c1` [Example 103, (S)-4,4-difluoro-1-(2-((S)-3-((6-methoxyquinolin-4-yl)oxy)pyrrolidin-1-yl)acetyl)pyrrolidine-2-carbonitrile], the IC50 on recombinant human DPP8 was 7.68 µM; at Recombinant human FAP it was 0.00068 µM; at recombinant human DPP7, 0.174 µM; at DPP4, > 1 µM; on recombinant human PREP it was 5670 nM; on recombinant human DPP9 it was 4.75 µM.
Take `N#C[C@@H]1CC(F)(F)CN1C(=O)CN1CC[C@H](Oc2ccnc3c(C(F)(F)F)cccc23)C1` [Example 104, (S)-4,4-difluoro-1-(2-((S)-3-((8-(trifluoromethyl)quinolin-4-yl)oxy)pyrrolidin-1-yl)acetyl)pyrrolidine-2-carbonitrile]: the IC50 at recombinant human DPP8 is 16.2 µM; at Recombinant human FAP it was 0.00114 µM; on recombinant human DPP7, 0.0834 µM; against DPP4, > 1 µM; on recombinant human PREP, 3080 nM; on recombinant human DPP9, 22.2 µM.
`N#C[C@@H]1CC(F)(F)CN1C(=O)CN1CC[C@H](Oc2cccc3ncccc23)C1` [Example 105, (S)-4,4-difluoro-1-(2-((S)-3-(quinolin-5-yloxy)pyrrolidin-1-yl)acetyl)pyrrolidine-2-carbonitrile]: the IC50 at recombinant human DPP8 is 11.8 µM; on Recombinant human FAP, 0.00121 µM; on recombinant human DPP7, 0.0635 µM; against DPP4, > 1 µM; at recombinant human PREP it was 5230 nM; on recombinant human DPP9, 12.5 µM.
On to `N#C[C@@H]1CC(F)(F)CN1C(=O)CN1CC[C@H](Oc2cccc3cnccc23)C1` [Example 106, (S)-4,4-difluoro-1-(2-((S)-3-(isoquinolin-5-yloxy)pyrrolidin-1-yl)acetyl)pyrrolidine-2-carbonitrile], for which the IC50 is 8.28 µM on recombinant human DPP8; 0.00188 µM at Recombinant human FAP; 0.0416 µM at recombinant human DPP7; > 1 µM against DPP4; 4310 nM at recombinant human PREP; 10.3 µM on recombinant human DPP9.
As to `N#C[C@@H]1CC(F)(F)CN1C(=O)CN1CC[C@H](Oc2ccnc3cc(Cl)ccc23)C1` [Example 107, (S)-1-(2-((S)-3-((7-chloroquinolin-4-yl)oxy)pyrrolidin-1-yl)acetyl)-4,4-difluoropyrrolidine-2-carbonitrile], the IC50 was 9.89 µM on recombinant human DPP8; 0.00367 µM on Recombinant human FAP; 0.0187 µM on recombinant human DPP7; > 1 µM against DPP4; 6500 nM on recombinant human PREP; 13.5 µM on recombinant human DPP9.
For the compound `N#C[C@@H]1CC(F)(F)CN1C(=O)CN1CC[C@H](Oc2cccc3[nH]c(=O)ccc23)C1` [Example 108, (S)-4,4-difluoro-1-(2-((S)-3-((2-oxo-1,2-dihydroquinolin-5-yl)oxy)pyrrolidin-1-yl)acetyl)pyrrolidine-2-carbonitrile], the IC50 on recombinant human DPP8 is 6.68 µM; on Recombinant human FAP, 0.00215 µM; at recombinant human DPP7, 0.0076 µM; at DPP4, > 1 µM; at recombinant human PREP, 3150 nM; on recombinant human DPP9 it was 6.3 µM.
`N#C[C@@H]1CC(F)(F)CN1C(=O)CN1CC[C@H](Oc2ccc(Cl)c3cccnc23)C1` [Example 109, (S)-1-(2-((S)-3-((5-chloroquinolin-8-yl)oxy)pyrrolidin-1-yl)acetyl)-4,4-difluoropyrrolidine-2-carbonitrile]: the IC50 was 2.17 µM on recombinant human DPP8; 0.0018 µM on Recombinant human FAP; 0.0383 µM at recombinant human DPP7; > 1 µM at DPP4; 4140 nM on recombinant human PREP; 4.43 µM at recombinant human DPP9.
Turning to `N#C[C@@H]1CCCN1C(=O)CN1CCC(Nc2ccnc3ccccc23)CC1` [Example 111, (S)-1-(2-(4-(quinolin-4-ylamino)piperidin-1-yl)acetyl)pyrrolidine-2-carbonitrile], the IC50 at recombinant human DPP8 was 31.9 µM; on Recombinant human FAP it was 0.00828 µM; at recombinant human DPP7, 0.503 µM; on recombinant human PREP it was 4170 nM; on recombinant human DPP9, 21.1 µM. Also, at DPP4, the “hDPP4 inhibition % at 1 μM” value is on record as “No inhibition**”.
As to `N#C[C@@H]1C[C@H](F)CN1C(=O)CN1CCC(Nc2cccc3ncccc23)CC1` [Example 113, (2S,4S)-4-fluoro-1-(2-(4-(quinolin-5-ylamino)piperidin-1-yl)acetyl)pyrrolidine-2-carbonitrile], the IC50 on recombinant human DPP8 is 2.41 µM; at Recombinant human FAP, 0.00165 µM; at recombinant human DPP7, 0.342 µM; on recombinant human PREP it was 2930 nM; on recombinant human DPP9 it was 3.97 µM. At DPP4, the inhibition at 1 µM was 20%.
As for `N#C[C@@H]1CC(F)(F)CN1C(=O)CN1CCC(Nc2cccc3ncccc23)CC1` [Example 114, (S)-4,4-difluoro-1-(2-(4-(quinolin-5-ylamino)piperidin-1-yl)acetyl)pyrrolidine-2-carbonitrile], the IC50 at recombinant human DPP8 was 1.53 µM; at Recombinant human FAP, 0.00094 µM; on recombinant human DPP7, < 0.03 µM; at recombinant human PREP, 31000 nM; on recombinant human DPP9, 3.4 µM. For the same compound, on DPP4, the inhibition at 1 µM came out at 15.7%.
Consider `N#C[C@@H]1C[C@@H]2C[C@@H]2N1C(=O)CN1CCC(Nc2cccc3ncccc23)CC1` [Example 115, (1S,3S,5S)-2-(2-(4-(quinolin-5-ylamino)piperidin-1-yl)acetyl)-2-azabicyclo[3.1.0]hexane-3-carbonitrile], for which the IC50 at recombinant human DPP8 is 52.1 µM; at Recombinant human FAP, 0.00564 µM; on recombinant human DPP7, 5.74 µM; on recombinant human PREP it was > 100000 nM; on recombinant human DPP9 it was 45.1 µM. Besides, the inhibition at 1 µM on DPP4 turned out to be 1.4%.
Regarding `N#C[C@@H]1CCCN1C(=O)CN1CCC(Oc2ccnc3ccccc23)CC1` [Example 118, (S)-1-(2-(4-(quinolin-4-yloxy)piperidin-1-yl)acetyl)pyrrolidine-2-carbonitrile], the IC50 was 85.4 µM at recombinant human DPP8; 0.00234 µM on Recombinant human FAP; 10.2 µM at recombinant human DPP7; 1040 nM at recombinant human PREP; > 100 µM at recombinant human DPP9. The “hDPP4 inhibition % at 1 μM” value at DPP4 is reported as “No inhibition**”.
Take `N#C[C@@H]1CCCN1C(=O)CN1CCC(Oc2cccc3ncccc23)CC1` [Example 119, (S)-1-(2-(4-(quinolin-5-yloxy)piperidin-1-yl)acetyl)pyrrolidine-2-carbonitrile]: the IC50 on recombinant human DPP8 was 60.4 µM; on Recombinant human FAP, 0.00145 µM; on recombinant human DPP7, 2.35 µM; at recombinant human PREP, 3760 nM; on recombinant human DPP9, > 100 µM. Moreover, the “hDPP4 inhibition % at 1 μM” value on DPP4 is recorded as “No inhibition**”.
Turning to `Cc1cnc2cccc(NC3CCN(CC(=O)N4CCC[C@H]4C#N)CC3)c2c1` [Example 121, (S)-1-(2-(4-((3-methylquinolin-5-yl)amino)piperidin-1-yl)acetyl)pyrrolidine-2-carbonitrile], the IC50 is 48.1 µM at recombinant human DPP8; 0.00184 µM on Recombinant human FAP; 1.74 µM on recombinant human DPP7; > 10 µM against DPP4; 73700 nM at recombinant human PREP; 46.9 µM at recombinant human DPP9.

By IC50 is commonly meant the concentration needed to halve the response being measured. A word on the inhibition: it is the percentage by which the read-out fell short of the control.
